Experimental data taken from article PMC8344761 (Journal of Enzyme Inhibition and Medicinal Chemistry, 2021).

Legend:
Hep3B cells = test: Sphere formation assay; assay type: cell-based; conditions: Homo sapiens, 48 h drug treatment, 13 days culture, read-out: % Inhibition of sphere forming Hep3B
Protocol: (§1) Sphere forming ability of Hep3B and Huh7 cells were examined after incubation with drugs for 48 h. Briefly, 3 × 10^3 cells which were pre-treated with or without drugs in prEGM media (Lonza, Basel, Switzerland) were seeded on an ultra-low adhering 24 well plate (Corning Incorporated Costar, Corning, NY). Twice a week, 500 µL of used medium was replaced with fresh prEGM media. At 13 days after plating, images of spheres were captured using Celloger Mini (Curiosis Inc., Seoul, South Korea). The number of spheroids over 50 µm in diameter was counted by using Image J software (National Institute of Health, Bethesda, MD).

Huh7 cells = test: Sphere formation assay; assay type: cell-based; conditions: Homo sapiens, Huh-7, 48 h drug treatment, 13 days culture, read-out: % Inhibition of sphere forming Huh7
Protocol: as §1

B-Raf (V600E) = B-Raf (V600E) (Homo sapiens, UniProt P15056, V600E); test: Raf kinase assay (Kinase HotSpot, Reaction Biology Corp.); assay type: biochemical
B-Raf (V600E), sequence (P15056 whole entry V600E): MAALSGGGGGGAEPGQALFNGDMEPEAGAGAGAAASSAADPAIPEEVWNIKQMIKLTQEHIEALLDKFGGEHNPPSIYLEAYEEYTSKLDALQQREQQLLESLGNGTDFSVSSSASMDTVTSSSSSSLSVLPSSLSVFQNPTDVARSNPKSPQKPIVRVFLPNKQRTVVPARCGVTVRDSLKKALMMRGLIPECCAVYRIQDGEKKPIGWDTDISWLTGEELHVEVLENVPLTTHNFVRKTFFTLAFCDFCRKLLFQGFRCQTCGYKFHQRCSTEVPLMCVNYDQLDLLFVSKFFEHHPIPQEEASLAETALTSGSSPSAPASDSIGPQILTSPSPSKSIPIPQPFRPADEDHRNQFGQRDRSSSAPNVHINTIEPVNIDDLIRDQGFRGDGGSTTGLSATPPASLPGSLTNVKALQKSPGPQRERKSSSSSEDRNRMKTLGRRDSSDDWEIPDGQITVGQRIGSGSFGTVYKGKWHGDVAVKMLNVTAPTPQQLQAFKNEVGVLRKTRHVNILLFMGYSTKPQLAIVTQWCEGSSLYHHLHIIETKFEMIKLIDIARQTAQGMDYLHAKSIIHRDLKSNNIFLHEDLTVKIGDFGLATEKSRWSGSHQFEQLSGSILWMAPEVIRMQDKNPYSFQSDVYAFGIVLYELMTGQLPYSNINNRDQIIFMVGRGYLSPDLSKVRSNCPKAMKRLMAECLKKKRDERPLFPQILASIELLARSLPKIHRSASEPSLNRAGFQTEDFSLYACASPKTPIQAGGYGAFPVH
Protocol: (§2) Compounds were delivered into each Raf reaction, followed ∼20 min later by addition of a mixture of ATP and [γ-^33P-ATP] (specific activity approx. 500 cpm/pmol, concentration as required) to a final concentration of 10 µM. After incubation for 40 min at 25 °C, the reaction was stopped by the addition of a 3% phosphoric acid solution. Then, the reaction was spotted onto a P30 filtermat, and unbound phosphate was removed by washing three times for 5 min in 75 mM phosphoric acid and once in methanol prior to drying and scintillation counting. […] IC50 values and curve fits were obtained using Prism (GraphPad Software, La Jolla, CA).

B-Raf = B-Raf (Homo sapiens, UniProt P15056); test: as above; assay type: biochemical
B-Raf, sequence (P15056 whole entry): as the sequence (P15056 whole entry V600E) above, with E600V counted along it
Protocol: as §2

C-Raf = C-Raf (Homo sapiens, UniProt P04049); test: as above; assay type: biochemical
C-Raf, sequence (P04049 whole entry): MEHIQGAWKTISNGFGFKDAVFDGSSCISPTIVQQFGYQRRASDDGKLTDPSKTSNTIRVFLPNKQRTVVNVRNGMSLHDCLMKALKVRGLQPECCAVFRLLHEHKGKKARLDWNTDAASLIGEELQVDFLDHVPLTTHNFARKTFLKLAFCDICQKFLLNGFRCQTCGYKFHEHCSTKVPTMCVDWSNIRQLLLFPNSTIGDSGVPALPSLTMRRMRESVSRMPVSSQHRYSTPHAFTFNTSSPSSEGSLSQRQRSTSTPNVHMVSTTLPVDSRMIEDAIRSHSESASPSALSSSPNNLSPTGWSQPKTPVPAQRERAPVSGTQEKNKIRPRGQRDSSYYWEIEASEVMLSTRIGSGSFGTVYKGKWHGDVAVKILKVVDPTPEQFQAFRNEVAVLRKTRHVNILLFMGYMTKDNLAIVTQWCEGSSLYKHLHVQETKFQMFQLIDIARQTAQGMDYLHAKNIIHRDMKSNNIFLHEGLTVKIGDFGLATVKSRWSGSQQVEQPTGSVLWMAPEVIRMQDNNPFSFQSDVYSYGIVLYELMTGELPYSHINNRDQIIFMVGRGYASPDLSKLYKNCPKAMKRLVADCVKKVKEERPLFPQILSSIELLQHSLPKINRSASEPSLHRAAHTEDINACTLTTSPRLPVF
Protocol: as §2

A-Raf = biological target: T1, A-Raf (Homo sapiens, UniProt P10398); test: as above; assay type: biochemical
T1 sequence (P10398 1-606): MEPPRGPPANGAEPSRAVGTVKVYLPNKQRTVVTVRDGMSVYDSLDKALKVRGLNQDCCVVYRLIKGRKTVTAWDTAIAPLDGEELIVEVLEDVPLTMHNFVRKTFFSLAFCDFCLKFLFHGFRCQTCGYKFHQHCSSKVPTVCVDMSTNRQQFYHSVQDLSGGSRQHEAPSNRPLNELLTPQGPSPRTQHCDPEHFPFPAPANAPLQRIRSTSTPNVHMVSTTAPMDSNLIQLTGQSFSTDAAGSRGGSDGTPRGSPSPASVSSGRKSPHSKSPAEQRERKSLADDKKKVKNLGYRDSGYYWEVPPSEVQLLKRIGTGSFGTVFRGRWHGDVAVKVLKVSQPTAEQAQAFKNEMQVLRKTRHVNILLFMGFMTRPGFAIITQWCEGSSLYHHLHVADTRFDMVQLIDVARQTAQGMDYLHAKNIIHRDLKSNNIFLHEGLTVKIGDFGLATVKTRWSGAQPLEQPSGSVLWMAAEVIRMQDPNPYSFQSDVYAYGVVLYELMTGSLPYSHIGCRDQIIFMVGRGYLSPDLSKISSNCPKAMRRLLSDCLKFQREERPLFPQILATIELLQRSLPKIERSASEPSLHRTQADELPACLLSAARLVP
Protocol: as §2, with “After incubation for 40 min at 25 °C, the reaction was stopped by the addition of a 3% phosphoric acid solution.” left out

VEGFR-2 tyrosine kinase = biological target: T2, VEGFR-2 tyrosine kinase (Homo sapiens, UniProt P35968); test: VEGFR-2 (KDR) kinase assay (ADP-glow); assay type: biochemical; conditions: fixed concentration 1 µM; read-out: inhibitory activity against VEGFR-2 tyrosine kinase
T2 construct: purchased Promega
T2 sequence (P35968 20-1356): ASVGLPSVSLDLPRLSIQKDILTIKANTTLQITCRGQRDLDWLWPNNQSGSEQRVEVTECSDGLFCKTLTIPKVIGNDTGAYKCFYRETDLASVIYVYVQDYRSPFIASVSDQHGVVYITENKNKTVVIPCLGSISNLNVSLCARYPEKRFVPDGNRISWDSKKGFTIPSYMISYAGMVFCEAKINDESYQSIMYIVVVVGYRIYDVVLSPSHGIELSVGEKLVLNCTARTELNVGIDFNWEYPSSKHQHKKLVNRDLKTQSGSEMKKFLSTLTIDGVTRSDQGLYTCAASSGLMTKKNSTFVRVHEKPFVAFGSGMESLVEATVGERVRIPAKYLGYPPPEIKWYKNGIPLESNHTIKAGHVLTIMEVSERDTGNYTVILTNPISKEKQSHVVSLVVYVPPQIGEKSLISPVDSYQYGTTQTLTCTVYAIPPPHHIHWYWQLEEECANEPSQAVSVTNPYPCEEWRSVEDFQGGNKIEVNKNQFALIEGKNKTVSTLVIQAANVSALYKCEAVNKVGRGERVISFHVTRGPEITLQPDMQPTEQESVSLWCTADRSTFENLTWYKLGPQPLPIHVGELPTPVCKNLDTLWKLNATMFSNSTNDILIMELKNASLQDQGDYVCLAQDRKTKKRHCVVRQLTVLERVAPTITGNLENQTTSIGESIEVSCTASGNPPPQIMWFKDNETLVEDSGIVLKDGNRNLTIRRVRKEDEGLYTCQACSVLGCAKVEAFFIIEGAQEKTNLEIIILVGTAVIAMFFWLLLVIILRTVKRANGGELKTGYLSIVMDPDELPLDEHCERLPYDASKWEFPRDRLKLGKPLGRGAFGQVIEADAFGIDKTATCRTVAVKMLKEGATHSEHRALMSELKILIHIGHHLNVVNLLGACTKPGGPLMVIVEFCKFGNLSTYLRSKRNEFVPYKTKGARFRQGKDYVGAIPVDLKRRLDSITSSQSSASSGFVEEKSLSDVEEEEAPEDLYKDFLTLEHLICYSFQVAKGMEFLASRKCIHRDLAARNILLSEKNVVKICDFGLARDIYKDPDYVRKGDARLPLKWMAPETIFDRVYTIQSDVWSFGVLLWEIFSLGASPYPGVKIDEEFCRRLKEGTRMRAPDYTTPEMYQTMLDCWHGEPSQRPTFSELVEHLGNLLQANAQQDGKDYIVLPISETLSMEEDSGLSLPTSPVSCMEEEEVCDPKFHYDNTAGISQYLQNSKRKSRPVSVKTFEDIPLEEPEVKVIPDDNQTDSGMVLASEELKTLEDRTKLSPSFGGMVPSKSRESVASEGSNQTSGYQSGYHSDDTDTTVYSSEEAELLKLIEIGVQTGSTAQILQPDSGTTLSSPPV
Protocol: The VEGFR-2 (KDR) kinase assay was performed with a KDR (Promega, WI, USA) kinase enzyme system using the ADP-glow kinase assay kit (Promega) in accordance with the manufacturer's instructions. […] The reaction was carried out at 25 °C for 1 h in a total volume of 25 µl. Subsequently, 25 µl of ADP-Glow reagent was added to the mixture, and then incubated for 40 min at 25 °C. After the addition of 50 µl of ADP detection reagents for 30 min at 25 °C, luminescence was measured using a Fluostar Omega microplate reader (BMG LABTECH GmbH, Ortenberg, Germany).

Hep3B = test: Cell proliferation assay (MTT); assay type: cell-based; conditions: Homo sapiens, 48 h, mean ± SEM of three independent experiments, read-out: Cancer cell proliferation IC50 Hep3B
Protocol: (§3) Hepatocellular carcinoma cell lines (HepG2, Huh7), human pancreatic ductal epithelial cell line (H6c7), and normal human colon cell line (CCD841) were obtained from the American Type Culture Collection (ATCC) (Manassas, VA, USA). Cells were cultured in DMEM/High Glucose media (Hep3B, Huh7, CCD841) or MEM/EBSS media (HepG2) containing 10% FBS, 100 IU/ml of penicillin and 100 µg/ml of streptomycin. H6c7 cells were cultured in keratinocyte serum free media supplemented with epidermal growth factor and bovine pituitary extract. Cells were maintained in 5% CO2 humidified atmosphere at 37 °C.
(§4) Cells were seeded in a 96-well plate and allowed to adhere for 24 h. The cells were serum starved in 1% serum containing medium for 12 h, and then treated with drugs in 10% serum-containing medium. After incubation for 48 h, cell proliferation was measured using MTT assay. Optical density was measured at 540 nm using a Spectrostar Nano microplate reader (BMG LABTECH GmbH, Ortenberg, Germany).

HepG2 = test: Cell proliferation assay (MTT); assay type: cell-based; conditions: Homo sapiens, 48 h, mean ± SEM of three independent experiments, read-out: Cancer cell proliferation IC50 HepG2
Protocol: as §3, §4

Huh7 = test: Cell proliferation assay (MTT); assay type: cell-based; conditions: Homo sapiens, Huh-7, 48 h, mean ± SEM of three independent experiments, read-out: Cancer cell proliferation IC50 Huh7
Protocol: as §3, §4

[1] = Cytotoxicity assay (MTT), normal cells; assay type: cell-based, human; conditions: human, mean ± SEM
Protocol: as §3
Cells were seeded in a 96-well plate and allowed to adhere for 24 h. Cells in low serum (1%)-containing medium were treated with drugs for 48 h. In case of H6c7 cells, cells in keratinocyte serum free media were treated with drugs for 48 h. Then, cell viability was measured using MTT assay. Optical density was measured at 540 nm using a Spectrostar Nano microplate reader (BMG LABTECH).

[2] = fixed concentration 1 μM, mean of two independent experiments
[3] = fixed concentration 1 μM, mean of two independent experiments, 1 µM

## CNC(=O)c1cc(Oc2c(C)nc(NC(=O)Nc3ccc(Cl)c(C(F)(F)F)c3)c(C)c2C)ccn1 [Compound 4, 4-((6–(3-(4-Chloro-3-(trifluoromethyl)phenyl)ureido)-2,4,5-trimethylpyridin-3-yl)oxy)-N-methylpicolinamide]
Hep3B cells; 1 μM
  inhibition at 1 µM: 30.8%
Hep3B cells; 10 μM
  inhibition at 10 µM: 50.6%
Huh7 cells; 1 μM
  inhibition at 1 µM: 31.6%
Huh7 cells; 10 μM
  inhibition at 10 µM: 50.5%
B-Raf (V600E); fixed concentration 1 μM, mean of two independent experiments, B-Raf (V599E)
  inhibition at 1 µM: 56.1%
B-Raf (V600E); mean ± SD of two independent experiments, read-out: In vitro Raf kinase inhibition IC50 B-Raf(V600E)
  IC50: 0.65 ± 0.0023 µM
B-Raf; [2]
  inhibition at 1 µM: 11.6%
B-Raf; [3]
  Inhibition (%) B-Raf: 12%
B-Raf; mean ± SD of two independent experiments, read-out: In vitro Raf kinase inhibition IC50 B-Raf
  IC50: 5.86 µM
C-Raf; [3]
  Inhibition (%) C-Raf: 84%
C-Raf; fixed concentration 1 μM, mean of two independent experiments, read-out: Inhibition (%) C-Raf
  inhibition at 1 µM: 84.3%
C-Raf; mean ± SD of two independent experiments, read-out: In vitro Raf kinase inhibition IC50 C-Raf
  IC50: 0.08 ± 0.0081 µM
A-Raf; [2]
  inhibition at 1 µM: 56%
A-Raf; mean ± SD of two independent experiments, read-out: In vitro Raf kinase inhibition IC50 A-Raf
  IC50: 0.312 ± 0.0259 µM
other
  melting point: 265 °C
VEGFR-2 tyrosine kinase
  inhibition at 1 µM: ~32%
Hep3B
  IC50: 6.23 ± 0.07 µM
HepG2
  IC50: 6.98 ± 0.08 µM
Huh7
  IC50: 5.29 ± 0.11 µM
[1]; CCD841 cells (normal colon epithelial cell line)
  CC50 at 48 h: > 10 µM
[1]; H6c7 cells (normal pancreatic ductal epithelial cell line)
  CC50 at 48 h: > 10 µM
